Data on 15 compounds can be found in patent US8729090B1, “Compositions and methods for inhibiting collagen production” (Florida State University Research Foundation, Inc., priority 2011, dated 2014).

In series [1] the test system is primary human lung fibroblasts. Description: Inhibition of type I collagen secretion by primary human lung fibroblasts, western blot of cellular medium. It is filed as cell-based. The conditions noted are these: two days; for secretion of type I collagen polypeptides COLα1(I) and COLα2(I) into the cellular medium: western blot. The procedure:
Several chemical compounds were identified in this screen and tested for their ability to inhibit collagen production by primary human lung fibroblasts in culture. Lung fibroblasts are responsible for development of lung fibrosis. The compounds were added in a single dose of 100 μM to the lung fibroblasts, except compound 60D17, which was added at 10 μM. Two days after the addition of the compounds, the secretion of type I collagen into the cellular medium was analyzed by western blot. Both polypeptides which form type I collagen, COLα1(I) and COLα2(I), were analyzed.
Here, COLα1 represents the α1 polypeptide of type I collagen, COLα2 represents the α2 polypeptide of type I collagen, and FIB represents fibronectin, which was the control.

Series [2] relates to lung fibroblasts. Description: Type I collagen expression of lung fibroblasts at therapeutic (nM) concentrations, western blot. It is filed as cell-based, human. The procedure:
In lung fibrosis the process of excessive collagen accumulation is similar to the liver, but the cells responsible for collagen synthesis are lung fibroblasts. Therefore, I tested the potency of 60D17 at therapeutic concentrations in lung fibroblasts before 60D17 was tested at higher concentrations in these cells.
Lane 4 represents untreated control cells.
In general terms: A western blot detects proteins with antibodies after separation by electrophoresis.

The subject of series [3] is hepatic stellate cells (HSCs). Put plainly: Inhibition of collagen α1(I) polypeptide synthesis in cultured hepatic stellate cells (HSCs), western blot. The conditions noted are these: added at day 3, measured at day 7. It is filed as cell-based, rat. The source says: HSCs are liver cells responsible for collagen synthesis in hepatic fibrosis. […] In fibrotic livers, HSCs increase type I collagen expression 50-100 fold. Similar changes can be reproduced when HSCs are isolated from rat livers and cultured in vitro.
Three days after isolation and culturing, the HSCs still retain their quiescent phenotype and show little collagen expression. At day 5 after isolation the first significant increase in collagen expression becomes evident. After 7-8 days of culturing type I collagen expression increases 50-100 fold and attains its maximal level.
I used this model to test the efficacy of 60D17 in inhibiting collagen expression, because it is relevant to liver fibrosis. 60D17 was added at 100 nM and 250 nM concentrations to HSCs at day 3 in the culture. The cells were cultured until day 7 and the level of collagen α1(I) polypeptide was measured by western blot.
Lane 1 contained untreated cells. Lane 2 contained HSCs treated with 250 nM of 60D17. Lane 3 contained HSCs treated with 100 nM of 60D17. The panel on the left represents the cellular levels of collagen α1(I) polypeptide measured by western blot. Actin (ACT) was used as the loading control. The right panel represents the collagen α1(I) polypeptide level in the cellular medium.

In series [4] the test system is rat liver slices. Put plainly: Collagen expression in precision cut rat liver slices, western blot. It is filed as cell-based. The conditions noted are these: 1 μM, 4 days, four slices. The procedure:
In these experiments 60D17 was added to four different slices (lanes 2-5) […] at 1 μM concentration. The expression of both collagen α1(I) polypeptide, resolved here as procollagen (PRO-COLL1A1), and processed mature collagen (COLL 1A1) were measured by western blot. Lanes 1 and 6 were untreated control. Actin (ACT) was used as the loading control.
Precision cut liver slices were prepared from rat liver with a thickness of 350 μm and diameter of 8 mm. These slices were cultured in vitro for several days. Cutting the liver represents an injury thereto. In response to this injury, the slices initiate profibrotic changes. The response is similar to the fibrotic response of the intact organ, because the slices retain all different cell types and proper architecture of the organ. Thus, they mimic fibrosis initiation of the whole liver. Accordingly, this is a useful model to test the efficacy of 60D17 in blocking the profibrotic reaction.

Series [5] can be described thus: Initial animal studies, tolerability in rats. It is filed as in vivo.
Series [6] deals with collagen synthesis. The note with it: cited from earlier work.

Each structure is given as a SMILES string.

In the case of `NCc1ccc(N2CCOCC2)cc1` [1E10], in series [1] (single dose of 100 μM), the “antifibrotic activity (collagen production by human lung fibroblasts, FIG. 1)” value (from here on “antifibrotic activity”) is listed as “posses antifibrotic activity”; the “secretion of type I collagen polypeptides COLα1(I) and COLα2(I) into the cellular medium” value (“secretion” below) is “dramatically reduced excretion of both collagen polypeptides”.

As for `O=c1c2oc3cccc4c3n(c=2c(=O)c2ccccc12)CCC4` [11M14], in series [1] (single dose of 100 μM), the “antifibrotic activity” value is given as “posses antifibrotic activity”; the “secretion” value is on record as “reduced production of α1(I) polypeptide more than that of α2 polypeptide”.

For `Cc1cccn2c(=O)c3cc(C(=O)N4CCN(c5ccccc5)CC4)n(C)c3nc12` [13B8], in series [1] (single dose of 100 μM), the “antifibrotic activity” value is given as “posses antifibrotic activity”; the “secretion” value was “reduced production of α1(I) polypeptide more than that of α2 polypeptide”.

Take `COC(=O)c1ccc2c3c([nH]c2c1)CCCC3` [13F20]: in series [1] (single dose of 100 μM), the “antifibrotic activity” value is on record as “posses antifibrotic activity”; the “secretion” value is recorded as “dramatically reduced excretion of both collagen polypeptides”.

With `Cc1cc(C)nc(-n2nc(-c3ccc4ccccc4c3)cc2O)n1` [45F6], in series [1] (single dose of 100 μM), the “antifibrotic activity” value was “posses antifibrotic activity”; the “secretion” value is “dramatically reduced excretion of both collagen polypeptides”.

As for `COc1ccc(N2CCOCC2)c(NC(=O)C(C)(C)C)c1` [45I22], in series [1] (single dose of 100 μM), the “antifibrotic activity” value is given as “posses antifibrotic activity”; the “secretion” value is listed as “dramatically reduced excretion of both collagen polypeptides”.

In the case of `Cc1cc(C)nc(-n2[nH]c3nccc(-c4ccc5ccccc5c4)c3c2=O)n1` [49L20], in series [1] (single dose of 100 μM), the “antifibrotic activity” value is recorded as “posses antifibrotic activity”; the “secretion” value was “reduced production of α1(I) polypeptide more than that of α2 polypeptide”.

With `CCN1CCCC1CNC(=O)c1ccc(S(=O)(=O)N2CCOCC2)cc1` (stereo not drawn) [57N21], in series [1] (single dose of 100 μM), the “antifibrotic activity” value was “posses antifibrotic activity”; the “secretion” value is given as “reduced production of α1(I) polypeptide more than that of α2 polypeptide”.

Turning to `Cn1c(C(=O)Nc2ccccc2)cc2c(=O)n3ccccc3nc21` [60D17-G], the “synthesis of type I collagen” value in series [2] (nM concentrations, cells not given) is “interfered with the synthesis of type I collagen at nM concentrations”.

On to `Cc1cccn2c(=O)c3cc(C(=O)Nc4cccnc4)n(C)c3nc12` [60D17], for which, in series [2] (50 nM), the “type I collagen expression” value is given as “substantially ineffective”. Besides, in series [2] (100 nM), the “synthesis of collagen α1(I) polypeptide” value is listed as “smaller effect” and the “synthesis of collagen α2(I) polypeptide” value is reported as “dramatically inhibited synthesis of collagen α2(I) polypeptide”. Further, in series [2] (500 nM, 18 h), the “production of both polypeptides comprising type I collagen” value was “almost completely inhibited”. Also, the “collagen α1(I) polypeptide expression in HSCs” value in series [3] (100 nM) is on record as “significantly inhibited collagen production”. Besides, the “collagen α1(I) polypeptide expression in HSCs” value in series [3] (250 nM) is given as “almost completely blocked the increase in collagen expression”. Besides, in series [1] (single dose of 10 μM), the “antifibrotic activity” value is listed as “posses antifibrotic activity”; the “secretion” value was “dramatically reduced excretion of both collagen polypeptides”. Also, the “expression of collagen α1(I) polypeptide in rat liver slices” value in series [4] is on record as “significantly inhibited expression of collagen α1(I) polypeptide”. For the same compound, in series [5], the tolerability in rats result is recorded as “well tolerated”.

Turning to `COC(=O)CNC(=O)c1cc2c(=O)n3cccc(C)c3nc2n1C` [60J13], in series [1] (single dose of 100 μM), the “antifibrotic activity” value is “posses antifibrotic activity”; the “secretion” value is “dramatically reduced excretion of both collagen polypeptides”.

With `CN(C)c1cccc(-c2nn3c(-c4ccccn4)nnc3s2)c1` [60M4], in series [1] (single dose of 100 μM), the “antifibrotic activity” value is given as “posses antifibrotic activity”; the “secretion” value is given as “reduced α2 polypeptide more than α1 polypeptide”.

As to `CC(CCO)Nc1nc2c(c(=O)n(C)c(=O)n2C)n1Cc1ccccc1F` (stereo not drawn) [65N3], in series [1] (single dose of 100 μM), the “antifibrotic activity” value is recorded as “posses antifibrotic activity”; the “secretion” value is “dramatically reduced excretion of both collagen polypeptides”.

For `CCSc1nnc2c(n1)OC(c1ccncc1)=Nc1ccccc1-2` [67C17], in series [1] (single dose of 100 μM), the “antifibrotic activity” value is “posses antifibrotic activity”; the “secretion” value is given as “reduced α2 polypeptide more than α1 polypeptide”.

On to `O=S(=O)(c1cccc2ccccc12)N1CCCNCC1` [ML-7], for which the collagen synthesis entry in series [6] is reported as “interferes with collagen synthesis”.
